Measured values as given in patent US11718604B2, “4-amino-6-(1,3-benzodioxole)picolinates and their use as herbicides” (Dow AgroSciences LLC, priority 2018, dated 2023).

Assays:
Assay type in all cases: in vivo
[1] = tested on: ABUTH: velvetleaf (Abutilon theophrasti); assay: Post-emergent herbicidal test, velvetleaf; conditions: post-emergence, 336 h, 14 days after application, read-out: Visual Growth Reduction (%) 14 Days After Application ABUTH; for pest or weed control at 17.5 g/ha: 17.5 g ai/ha; for pest or weed control at 35 g/ha: 35 g ai/ha; for pest or weed control at 70 g/ha: 70 g ai/ha; for pest or weed control at 140 g/ha: 140 g ai/ha
Summary of the method: (§1)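 Post-emergence foliar spray, 187 L/ha, 1st–2nd true leaf plants; vehicle acetone/DMSO/IPA/water + Atplus 411F + Triton X-155; solvent-blank controls; subirrigated; 14 d greenhouse, visual % injury.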

[2] = tested on: BRSNN: oilseed rape, canola (Brassica napus); assay: Post-emergent herbicidal test, oilseed rape; conditions: post-emergence, 336 h, 14 days after application, read-out: Visual Growth Reduction (%) 14 Days After Application BRSNN; for pest or weed control at 17.5 g/ha: 17.5 g ai/ha; for pest or weed control at 35 g/ha: 35 g ai/ha; for pest or weed control at 70 g/ha: 70 g ai/ha; for pest or weed control at 140 g/ha: 140 g ai/ha
Summary of the method: as §1

[3] = tested on: CIRAR: Canada thistle (Cirsium arvense); assay: Post-emergent herbicidal test, Canada thistle; conditions: post-emergence, 336 h, 14 days after application, read-out: Visual Growth Reduction (%) 14 Days After Application CIRAR; for pest or weed control at 17.5 g/ha: 17.5 g ai/ha; for pest or weed control at 35 g/ha: 35 g ai/ha; for pest or weed control at 70 g/ha: 70 g ai/ha; for pest or weed control at 140 g/ha: 140 g ai/ha
Summary of the method: as §1

[4] = tested on: EPHHL: wild poinsettia (Euphorbia heterophylla); assay: Post-emergent herbicidal test, wild poinsettia; conditions: post-emergence, 336 h, 14 days after application, read-out: Visual Growth Reduction (%) 14 Days After Application EPHHL; for pest or weed control at 17.5 g/ha: 17.5 g ai/ha; for pest or weed control at 35 g/ha: 35 g ai/ha; for pest or weed control at 70 g/ha: 70 g ai/ha; for pest or weed control at 140 g/ha: 140 g ai/ha
Summary of the method: as §1

[5] = tested on: IPOHE: ivyleaf morningglory (Ipomoea hederacea); assay: Post-emergent herbicidal test, ivyleaf morningglory; conditions: post-emergence, 336 h, 14 days after application, read-out: Visual Growth Reduction (%) 14 Days After Application IPOHE; for pest or weed control at 17.5 g/ha: 17.5 g ai/ha; for pest or weed control at 35 g/ha: 35 g ai/ha; for pest or weed control at 70 g/ha: 70 g ai/ha; for pest or weed control at 140 g/ha: 140 g ai/ha
Summary of the method: as §1

[6] = tested on: VIOTR: wild violet (Viola tricolor); assay: Post-emergent herbicidal test, wild violet; conditions: post-emergence, 336 h, 14 days after application, read-out: Visual Growth Reduction (%) 14 Days After Application VIOTR; for pest or weed control at 17.5 g/ha: 17.5 g ai/ha; for pest or weed control at 35 g/ha: 35 g ai/ha; for pest or weed control at 70 g/ha: 70 g ai/ha; for pest or weed control at 140 g/ha: 140 g ai/ha
Summary of the method: as §1

[7] = tested on: CYPES: yellow nutsedge (Cyperus esculentus); assay: Post-emergent herbicidal test, yellow nutsedge; conditions: post-emergence, 336 h, 14 days after application, read-out: Visual Growth Reduction (%) 14 Days After Application CYPES; for pest or weed control at 17.5 g/ha: 17.5 g ai/ha; for pest or weed control at 35 g/ha: 35 g ai/ha; for pest or weed control at 70 g/ha: 70 g ai/ha; for pest or weed control at 140 g/ha: 140 g ai/ha
Summary of the method: as §1

[8] = tested on: DIGSA: large crabgrass (Digitaria sanguinalis); assay: Post-emergent herbicidal test, large crabgrass; conditions: post-emergence, 336 h, 14 days after application, read-out: Visual Growth Reduction (%) 14 Days After Application DIGSA; for pest or weed control at 17.5 g/ha: 17.5 g ai/ha; for pest or weed control at 35 g/ha: 35 g ai/ha; for pest or weed control at 70 g/ha: 70 g ai/ha; for pest or weed control at 140 g/ha: 140 g ai/ha
Summary of the method: as §1

[9] = tested on: ECHCG: barnyardgrass (Echinochloa crus-galli); assay: Post-emergent herbicidal test, barnyardgrass; conditions: post-emergence, 336 h, 14 days after application, read-out: Visual Growth Reduction (%) 14 Days After Application ECHCG; for pest or weed control at 17.5 g/ha: 17.5 g ai/ha; for pest or weed control at 35 g/ha: 35 g ai/ha; for pest or weed control at 70 g/ha: 70 g ai/ha; for pest or weed control at 140 g/ha: 140 g ai/ha
Summary of the method: as §1

[10] = tested on: SETFA: giant foxtail (Setaria faberi); assay: Post-emergent herbicidal test, giant foxtail; conditions: post-emergence, 336 h, 14 days after application, read-out: Visual Growth Reduction (%) 14 Days After Application SETFA; for pest or weed control at 17.5 g/ha: 17.5 g ai/ha; for pest or weed control at 35 g/ha: 35 g ai/ha; for pest or weed control at 70 g/ha: 70 g ai/ha; for pest or weed control at 140 g/ha: 140 g ai/ha
Summary of the method: as §1

[11] = tested on: SORVU: shattercane (Sorghum bicolor); assay: Post-emergent herbicidal test, shattercane; conditions: post-emergence, 336 h, 14 days after application, read-out: Visual Growth Reduction (%) 14 Days After Application SORVU; for pest or weed control at 17.5 g/ha: 17.5 g ai/ha; for pest or weed control at 35 g/ha: 35 g ai/ha; for pest or weed control at 70 g/ha: 70 g ai/ha; for pest or weed control at 140 g/ha: 140 g ai/ha
Summary of the method: as §1

In the case of `Nc1c(F)c(-c2ccc(I)c3c2OC(F)(F)O3)nc(C(=O)O)c1Cl` [Compound 12], the pest or weed control at 17.5 g/ha [1] is reported as 0%, the pest or weed control at 35 g/ha [1] is reported as 0% and the pest or weed control at 70 g/ha [1] is reported as 70%. It also gave a pest or weed control at 140 g/ha [1] of 80%, a pest or weed control at 17.5 g/ha [2] of 70% and a pest or weed control at 35 g/ha [2] of 80%. The pest or weed control at 70 g/ha [2] was 90%, the pest or weed control at 140 g/ha [2] was 100% and the pest or weed control at 17.5 g/ha [3] was 65%. The pest or weed control at 35 g/ha [3] was 80%, the pest or weed control at 70 g/ha [3] was 85% and the pest or weed control at 140 g/ha [3] was 85%. It also gave a pest or weed control at 17.5 g/ha [4] of 0%, a pest or weed control at 35 g/ha [4] of 0% and a pest or weed control at 70 g/ha [4] of 0%. It also gave a pest or weed control at 140 g/ha [4] of 0%, a pest or weed control at 17.5 g/ha [5] of 0% and a pest or weed control at 35 g/ha [5] of 0%. The pest or weed control at 70 g/ha [5] was 0%, the pest or weed control at 140 g/ha [5] was 0% and the pest or weed control at 17.5 g/ha [6] was 0%. The pest or weed control at 35 g/ha [6] was 0%, the pest or weed control at 70 g/ha [6] was 0% and the pest or weed control at 140 g/ha [6] was 0%. The pest or weed control at 17.5 g/ha [7] was 0%, the pest or weed control at 35 g/ha [7] was 0% and the pest or weed control at 70 g/ha [7] was 0%. For the same compound, the pest or weed control at 140 g/ha [7] was 0%, the pest or weed control at 17.5 g/ha [8] was 0% and the pest or weed control at 35 g/ha [8] was 0%. It also gave a pest or weed control at 70 g/ha [8] of 0%, a pest or weed control at 140 g/ha [8] of 0% and a pest or weed control at 17.5 g/ha [9] of 0%. For the same compound, the pest or weed control at 35 g/ha [9] was 0%, the pest or weed control at 70 g/ha [9] was 0% and the pest or weed control at 140 g/ha [9] was 0%. The pest or weed control at 17.5 g/ha [10] was 0%, the pest or weed control at 35 g/ha [10] was 0% and the pest or weed control at 70 g/ha [10] was 0%. It also gave a pest or weed control at 140 g/ha [10] of 0%, a pest or weed control at 17.5 g/ha [11] of 0% and a pest or weed control at 35 g/ha [11] of 0%. For the same compound, the pest or weed control at 70 g/ha [11] was 0% and the pest or weed control at 140 g/ha [11] was 0%.
`COC(=O)c1nc(-c2ccc(Cl)c3c2OC(F)(F)O3)c(Cl)c(N)c1Cl` [Compound 13] showed a pest or weed control at 17.5 g/ha [1] of 30%, a pest or weed control at 35 g/ha [1] of 50% and a pest or weed control at 70 g/ha [1] of 75%. The pest or weed control at 140 g/ha [1] was 80%, the pest or weed control at 17.5 g/ha [2] was 40% and the pest or weed control at 35 g/ha [2] was 60%. It also gave a pest or weed control at 70 g/ha [2] of 70%, a pest or weed control at 140 g/ha [2] of 80% and a pest or weed control at 17.5 g/ha [3] of 50%. For the same compound, the pest or weed control at 35 g/ha [3] was 60%, the pest or weed control at 70 g/ha [3] was 80% and the pest or weed control at 140 g/ha [3] was 85%. The pest or weed control at 17.5 g/ha [4] was 0%, the pest or weed control at 35 g/ha [4] was 0% and the pest or weed control at 70 g/ha [4] was 0%. It also gave a pest or weed control at 140 g/ha [4] of 0%, a pest or weed control at 17.5 g/ha [5] of 0% and a pest or weed control at 35 g/ha [5] of 10%. For the same compound, the pest or weed control at 70 g/ha [5] was 20%, the pest or weed control at 140 g/ha [5] was 30% and the pest or weed control at 17.5 g/ha [6] was 0%. The pest or weed control at 35 g/ha [6] was 0%, the pest or weed control at 70 g/ha [6] was 0% and the pest or weed control at 140 g/ha [6] was 0%. For the same compound, the pest or weed control at 17.5 g/ha [7] was 0%, the pest or weed control at 35 g/ha [7] was 0% and the pest or weed control at 70 g/ha [7] was 0%. The pest or weed control at 140 g/ha [7] was 0%, the pest or weed control at 17.5 g/ha [8] was 0% and the pest or weed control at 35 g/ha [8] was 0%. The pest or weed control at 70 g/ha [8] was 0%, the pest or weed control at 140 g/ha [8] was 0% and the pest or weed control at 17.5 g/ha [9] was 0%. For the same compound, the pest or weed control at 35 g/ha [9] was 0%, the pest or weed control at 70 g/ha [9] was 0% and the pest or weed control at 140 g/ha [9] was 0%. For the same compound, the pest or weed control at 17.5 g/ha [10] was 0%, the pest or weed control at 35 g/ha [10] was 0% and the pest or weed control at 70 g/ha [10] was 0%. For the same compound, the pest or weed control at 140 g/ha [10] was 0%, the pest or weed control at 17.5 g/ha [11] was 0% and the pest or weed control at 35 g/ha [11] was 0%. The pest or weed control at 70 g/ha [11] was 0% and the pest or weed control at 140 g/ha [11] was 0%.
